Values quoted from earlier work in article PMC10552101 (ACS Omega, 2023).

In the case of CNC1CC(c2ccc(Cl)c(Cl)c2)c2ccccc21 (stereo not shown) [LU-19-005, indatraline], the onset is listed as “slow onset”.
